The subject of one experiment is Human tumor cells. Kind of experiment: Soft Agar Assay (anchorage-independent growth, colony count after MTT staining). It counts as cell-based. How it is done:
Anchorage-independent growth is a characteristic of tumorigenic cell lines. Human tumor cells can be suspended in growth medium containing 0.3% agarose and an indicated concentration of a farnesyl transferase inhibitor. The solution can be overlayed onto growth medium solidified with 0.6% agarose containing the same concentration of farnesyl transferase inhibitor as the top layer. After the top layer is solidified, plates can be incubated for 10-16 days at 37°C under 5% CO2 to allow colony outgrowth. After incubation, the colonies can be stained by overlaying the agar with a solution of MTT (3-[4,5-dimethyl-thiazol-2-yl]-2,5-diphenyltetrazolium bromide, Thiazolyl blue) (1 mg/mL in PBS). Colonies can be counted and the IC50's can be determined.

Experiment [1] deals with farnesyl protein transferase (Homo sapiens, UniProt P49354+P49356). Kind of experiment: FPT IC50 (inhibition of farnesyl protein transferase, in vitro enzyme assay). In kind it is biochemical. The note with it: procedures of WO 95/10516. As for the experimental part: FPT IC50 (inhibition of farnesyl protein transferase, in vitro enzyme assay) was determined following the assay procedures described in WO 95/10516, published April 20, 1995. GGPT IC50 (inhibition of geranylgeranyl protein transferase, in vitro enzyme assay), Cell Mat Assay, COS Cell IC50 (Cell-Based Assay), and anti-tumor activity (in vivo anti-tumor studies) could be determined by the assay procedures described in WO 95/10516. The disclosure of WO 95/10516 is incorporated herein by reference thereto.

Setting [2] is: colony outgrowth 10-16 days at 37°C under 5% CO2, read-out: Soft Agar IC50.

For 14 compounds, IC50 results are on record in patent publication EP1140904B1, “FARNESYL PROTEIN TRANSFERASE INHIBITORS” (SCHERING CORPORATION, priority 1998, dated 2000).

Read-outs that look alike come from different tables or passages of the source.

For orientation: IC50 means the concentration that gives 50% inhibition. Turning to `CC(C)(C)OC(=O)N1CCN(C2c3ccc(Cl)cc3CCc3cc(Br)cnc32)CC1C(=O)N1CCCC(Cn2ccnc2)C1` (stereo not drawn) [Example 10], the IC50 in the experiment on Human tumor cells (setting [2]) lay in the range of 0.5 to 30 nM. Turning to `CC(C)OC(=O)N1CCN(C2c3ccc(Cl)cc3CCc3cc(Br)cnc32)CC1C(=O)N1CCCC(Cn2ccnc2)C1` (stereo not drawn) [Example 14], the IC50 in the experiment on Human tumor cells (setting [2]) was in the range of 0.5 to 30 nM. Still for that read-out and setting: next, `O=C(C1CN(C2c3ccc(Cl)cc3CCc3cc(Br)cnc32)CCN1C(=O)OC1CCCCC1)N1CCCC(Cn2ccnc2)C1` (stereo not drawn) [Example 15]: 0.5 to 30 nM. On to `CC(C)(C)NC(=O)N1CCN(C2c3ccc(Cl)cc3CCc3cc(Br)cnc32)CC1C(=O)N1CCCC(Cn2ccnc2)C1` (stereo not drawn) [Example 16], for which the IC50 in the experiment on Human tumor cells (setting [2]) lay within 0.5 to 30 nM. The same measure, in the same setting: next, `CC(C)NC(=O)N1CCN([C@@H]2c3ccc(Cl)cc3CCc3cc(Br)cnc32)C[C@@H]1C(=O)N1CCC[C@@H](Cn2ccnc2)C1` [Example 17]: 0.5 to 30 nM; `CC(C)(C)NC(=O)N1CCN([C@@H]2c3ccc(Cl)cc3CCc3cc(Br)cnc32)C[C@@H]1C(=O)N1CCC[C@H](Cn2ccnc2)C1` [Example 18]: 0.5 to 30 nM. Still for that read-out and setting: next, `CC(C)OC(=O)N1CCN([C@@H]2c3ccc(Cl)cc3CCc3cc(Br)cnc32)C[C@@H]1C(=O)N1CCC[C@H](Cn2ccnc2)C1` [Example 19]: 0.5 to 30 nM. For `CC(C)(C)OC(=O)N1CCN(C2c3ccc(Cl)cc3CCc3cc(Br)cnc32)C[C@@H]1C(=O)N1CCCCC1CCn1ccnc1` (stereo partly drawn) [Example 74, 1,1-DIMETHYLETHYL-4-(3-BROMO-8-CHLORO-6,11-DIHYDRO-5H-BENZO[5,6]CYCLOHEPTA[1,2-b]PYRIDIN-11-YL)-2(R)-[[2-[2-(1H-IMIDAZOL-1-YL)ETHYL]-1-PIPERIDINYL]CARBONYL]-1-PIPERAZINECARBOXYLATE], the half-inhibitory concentration (IC50) lay within 0.04 to 2.7 nM in experiment [1] and 0.5 to 30 nM in the experiment with Human tumor cells (read-out: Soft Agar IC50). Consider `CC(C)(C)OC(=O)N1CCN([C@H]2c3ccc(Cl)cc3CCc3cc(Br)cnc32)C[C@@H]1C(=O)N1CCCCC1CCn1ccnc1` (stereo partly drawn) [Example 138, 1,1-DIMETHYLETHYL 4-(3-BROMO-8-CHLORO-6,11-DIHYDRO-5H-BENZO[5,6]CYCLOHEPTA[1,2-b]PYRIDIN-11(S)-YL)-2(R)-[[2-[2-(1H-IMIDAZOL-1-YL)ETHYL]-1-PIPERIDINYL]CARBONYL]-1-PIPERAZINECARBOXYLATE], for which the IC50 was 0.04 to 2.7 nM in experiment [1] and 0.5 to 30 nM with Human tumor cells (read-out: Soft Agar IC50).

Regarding `CC(C)(C)OC(=O)N1CCN(C2c3ccc(Cl)cc3CCc3cc(Br)cnc32)C[C@@H]1C(=O)N1CCCCC1CCCn1ccnc1` (stereo partly drawn) [Example 145, 1,1-DIMETHYLETHYL 4-(3-BROMO-8-CHLORO-6,11-DIHYDRO-5H-BENZO[5,6]CYCLOHEPTA[1,2-b]PYRIDIN-11-YL)-2(R)-[[2-[3-(1H-IMIDAZOL-1-YL)PROPYL]-1-PIPERIDINYL]CARBONYL]-1-PIPERAZINECARBOXYLATE], the IC50 in experiment [1] lay within 0.04 to 2.7 nM; in the experiment with Human tumor cells (read-out: Soft Agar IC50), 0.5 to 30 nM. As for `Cc1cn(CC2CCCN(C(=O)C3CN(C4c5ccc(Cl)cc5CCc5cc(Br)cnc54)CCN3C(=O)Cc3ccc(F)cc3)C2)cn1` (stereo not drawn) [Example 197], the IC50 in experiment [1] lay within 0.04 to 2.7 nM; in the experiment on Human tumor cells (setting [2]), 0.05 to 30 nM. As to `Cc1cn(CC2CCCN(C(=O)C3CN(C4c5ccc(Cl)cc5CCc5ccc[n+]([O-])c54)CCN3C(=O)OC3CCCCC3)C2)cn1` (stereo not drawn) [Example 387], the IC50 in experiment [1] lay in the range of 0.04 to 2.7 nM; with Human tumor cells (setting [2]), 0.05 to 30 nM. For the compound `Cc1cn(CC2CCCN(C(=O)C3CN(C4c5ccc(Cl)cc5CCc5cccnc54)CCN3C(=O)OCC(C)(C)C)C2)cn1` (stereo not drawn) [Example 411], the IC50 in experiment [1] was 0.04 to 2.7 nM; with Human tumor cells (setting [2]) it was 0.05 to 30 nM. On the same counts, the results for `Cc1cn(C[C@@H]2CCCN(C(=O)[C@H]3CN(C4c5ccccc5CCc5ccccc54)CCN3C(=O)OC3CCCCC3)C2)cn1` [Example 414] are 0.04 to 2.7 nM and 0.05 to 30 nM.
